The test system of assay [1] is C. guilliermondii IBA 155. Nature of the assay: antifungal activity (disc-diffusion, MIC, MFC). In kind it is cell-based, Candida guilliermondii. Particulars: Meyerozyma guilliermondii, IBA155; for zone of inhibition at 0.4 mg/disc: 0.4 mg per disc, 9 mm disc (fluconazole 0.025 mg, 6 mm disc), - no zone, read-out: Diameter of inhibition zone; for MIC: fluconazole by Etest. The method, boiled down:
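Diboronic acids (DMSO solutions) at 0.4 mg per disc were used for diffusion testing. Dilution endpoints were MIC, MBC and MFC, per CLSI and EUCAST recommendations.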
A general note: A growth-free zone around the sample is the usual read-out of agar diffusion tests.

For a further assay, the system named is E. coli 76 KPC-2(+). As to the kind of experiment: MIC of tested agent alone, microdilution. In kind it is cell-based. In short, it runs like this: (§1)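 MICs of the agents alone were determined by broth microdilution. In checkerboard plates, β-lactams (1–64 mg/L) were combined with the agents or PBA at 4–16 mg/L, and antibiotic MICs were read at each agent concentration. FICI was calculated at the growth/no-growth interface.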
In general terms: Dilution methods test growth across graded concentrations, often in twofold steps.

The next assay has as its system E. coli 77 CMY-2(+). Nature of the assay: MIC of tested agent alone, microdilution. It is filed as cell-based. In short, it runs like this:
as §1

Assay [2] deals with K. pneumoniae 81 KPC-3(+). Nature of the assay: MIC of tested agent alone, microdilution. In kind it is cell-based. In short, it runs like this: as §1
Assay [3] deals with K. pneumoniae 83 KPC-3(+), CTX-M-3(+). As to the kind of experiment: MIC of tested agent alone, microdilution. It is filed as cell-based. The method, boiled down:
as §1

For assay [4], the system named is K. pneumoniae ATCC BAA-1705 KPC-2(+). As to the kind of experiment: MIC of tested agent alone, microdilution. It is filed as cell-based. In short, it runs like this: as §1
Assay [5] relates to P. aeruginosa MUW 700 cAmpC-positive. As to the kind of experiment: combination disc test CDT-AmpC. It is filed as cell-based. Particulars: Pseudomonas aeruginosa, read-out: Diameter of inhibition zone, CAZ-30 disc with agent.
The test system of assay [6] is E. coli 77 CMY-2-positive. Nature of the assay: checkerboard microdilution, antibiotic plus tested agent. It is filed as cell-based, Escherichia coli. The method, boiled down: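 Read-out is the antibiotic MIC with agent present, plus FICI = combined/alone MIC ratios summed for both partners. Meropenem pairs served for carbapenemase strains and ceftazidime pairs for the AmpC strain. Agent or PBA was tested at 4–16 mg/L.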

For assay [7], the system named is E. coli 76 KPC-2-positive. Described as above. In kind it is cell-based, Escherichia coli. The method, boiled down:
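Chequerboard layout: tested agent in three two-fold steps (4–16 mg/L) crossed with seven β-lactam dilutions (1–64 mg/L), meropenem for KPC strains and ceftazidime for the cAmpC strain. FICI from first non-growth wells, off-scale MICs raised one doubling; ≤0.5 counts as synergy, >4 antagonism.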

Assay [8] concerns K. pneumoniae 81 KPC-3-positive. The description is as above. In kind it is cell-based, Klebsiella pneumoniae. The protocol: (§2) To examine the ability of tested agents to inhibit various carbapenemases and AmpC-enzymes, their synergy with antibiotics against β-lactamase-producing strains was assessed by checkerboard microdilution assay, with slight modification. Checkerboards were prepared in microtiter plates, with seven two-fold dilutions of β-lactams (1–64 mg/L) in the rows and three two-fold dilutions of tested agents and PBA (4–16 mg/L) in the columns. Tested agents’ concentrations were limited to the concentrations at which the newest commercially available BLIs (vaborbactam, relebactam, and avibactam) are used in susceptibility testing. Plates were inoculated and incubated as in the MIC microdilution assay. Parallel, MICs of tested agents and PBA alone were determined by the microdilution assay. Following the incubation, antibiotic MICs in the presence of each agent’s concentration were determined. Moreover, for the first well without growth found in each checkerboard row and column along the growth/non-growth interface, the fractional inhibitory concentration index (FICI) was calculated using the formula below:FICI = [(MIC of antibiotic in combination)/(MIC of antibiotic alone)] + [(MIC of the tested agent in combination)/(MIC of tested agent alone)].
(§3) For calculations, all off-scale MICs were converted to the next-highest doubling concentration. Subsequently, both the average and the lowest FICI were interpreted. The interpretation was as follows: FICI ≤ 0.5, synergy; 0.5 < FICI ≤ 4, indifference and FICI > 4, antagonism. Primarily, examined combinations consisted of meropenem (Pol-Aura, Morag, Poland) plus tested agents against carbapenemases-producing strains and ceftazidime (Pol-Aura, Morag, Poland) plus tested agents against AmpC-producing strains. For agents that reduced meropenem MIC at least 4-fold for at least two tested strains, similar assays were performed with imipenem (Pol-Aura, Morag, Poland) and ertapenem (Pol-Aura, Morag, Poland).

Assay [9] deals with K. pneumoniae 83 KPC-3-positive, CTX-M-3-positive. Described as above. In kind it is cell-based, Klebsiella pneumoniae. The procedure: as §2, §3
Assay [10] deals with K. pneumoniae ATCC BAA-1705 KPC-2-positive. The description is as above. In kind it is cell-based, Klebsiella pneumoniae. The procedure:
as §2, §3

Setting [11] is: Escherichia coli; read-out: MIC of agent alone.
The mark [12] stands for this setting: Klebsiella pneumoniae; read-out: MIC of agent alone.
[13] abbreviates: Klebsiella pneumoniae, ATCCBAA1705; read-out: MIC of agent alone.
Where [14] appears, read: Escherichia coli, read-out: MIC of agent alone.
Setting [15] is: Klebsiella pneumoniae, read-out: MIC of agent alone.

≈ marks a conversion by molar mass, not a printed value. Where two headings read alike, the source gives them in different places. Some results are limits rather than exact numbers.

Here are results for 9 compounds from publication PMC10648349, “Aromatic Diboronic Acids as Effective KPC/AmpC Inhibitors” (Molecules, 2023).

For the compound `OB(O)c1ccc(C(F)(F)F)cc1B(O)O` [3e], the MFC (as a rule, the smallest concentration meeting the test's criterion for killing the fungus) in assay [1] was determined as 400 µg/mL (≈ 1710 µM). In addition, the zone of inhibition (in general, the extent of the growth-free halo in a diffusion test) at 0.4 mg/disc in [1] came to 40 mm. For the same compound, the MIC (usually the lowest concentration found to suppress growth) in [1] is 3.12 µg/mL (≈ 13.3 µM); with E. coli 76 KPC-2(+) (setting [11]), above 400 µg/mL; with E. coli 77 CMY-2(+) (setting [11]), above 400 µg/mL; in assay [2] (setting [12]), above 400 µg/mL; in [3] (setting [12]) it was above 400 µg/mL; in [4] (setting [13]) it was above 400 µg/mL. The zone of inhibition at 300 µg/disc in [5] (agent 0.3 mg per disc) stood at 17 mm.
Take `OB(O)c1ccsc1B(O)O` [5a, thiophene-2,3-diboronic acid]: the MIC (in [1]; with E. coli 76 KPC-2(+) (setting [11]); with E. coli 77 CMY-2(+) (setting [11]); in assay [2] (setting [12]); in assay [3] (setting [12]); in assay [4] (setting [13])) was above 400 µg/mL throughout. Besides, in assay [5] (agent 0.3 mg per disc), the zone of inhibition at 300 µg/disc came out at 22 mm. In [6], the “Average FICI with ceftazidime” value is 0.43. For the same compound, in assay [6], the “The lowest FICI with ceftazidime” value is listed as 0.27.
As for `OB(O)c1cccc(B(O)O)c1` [2a], the zone of inhibition at 0.4 mg/disc in assay [1] stood at 14 mm. The minimum inhibitory concentration (MIC) (in assay [1]; in the assay with E. coli 76 KPC-2(+) (setting [11]); in the assay on E. coli 77 CMY-2(+) (setting [11]); in assay [2] (setting [12]); in assay [3] (setting [12]); in assay [4] (setting [13])) was above 400 µg/mL in each case. The zone of inhibition at 300 µg/disc in assay [5] (agent 0.3 mg per disc) is 21 mm. The “Average FICI with ceftazidime” value in [6] is 0.22. Besides, in assay [6], the “The lowest FICI with ceftazidime” value stood at 0.15.
In the case of `OB(O)c1ccc(F)cc1B(O)O` [3c], the MIC (in assay [1]; in the assay on E. coli 76 KPC-2(+) (setting [11]); with E. coli 77 CMY-2(+) (setting [11]); in assay [2] (setting [12]); in [3] (setting [12]); in assay [4] (setting [13])) was above 400 µg/mL each time. Also, in assay [5] (agent 0.3 mg per disc), the zone of inhibition at 300 µg/disc was determined as 20 mm. In addition, the “Average FICI with ERT” value in assay [7] came out at 0.43; in assay [8], 0.22; in assay [9], 0.43; in assay [10] it was 0.43. Moreover, the “Average FICI with IMI” value stood at 0.22 in [7], 0.18 in assay [8], 0.35 in [9] and 0.35 in assay [10]. The “Average FICI with MEM” value is recorded as 0.43 in [7], 0.18 in assay [8], 0.22 in [9] and 0.51 in assay [10]. The “The lowest FICI with ERT” value in assay [7] is given as 0.27; in assay [8] it was 0.15; in [9] it was 0.27; in assay [10] it was 0.27. Further, the “The lowest FICI with IMI” value in assay [7] is 0.15; in [8] it was 0.14; in assay [9], 0.26; in [10] it was 0.26. In addition, the “The lowest FICI with MEM” value in assay [7] amounted to 0.27; in assay [8], 0.14; in [9], 0.15; in [10], 0.51.
With `OB(O)c1cc(C(F)(F)F)cc(B(O)O)c1F` [2e], the zone of inhibition at 0.4 mg/disc in assay [1] is 14 mm. Moreover, the MIC (in [1]; in the assay on E. coli 76 KPC-2(+) (setting [11]); in the assay with E. coli 77 CMY-2(+) (setting [11]); in assay [2] (setting [12]); in assay [3] (setting [12]); in assay [4] (setting [13])) was above 400 µg/mL each time. Also, the zone of inhibition at 300 µg/disc in assay [5] (agent 0.3 mg per disc) worked out at 16 mm.
Regarding `OB(O)c1cccc(F)c1B(O)O` [3b], the MIC was 400 µg/mL (≈ 2180 µM) in [1]; above 400 µg/mL in the assay on E. coli 76 KPC-2(+) (setting [11]); above 400 µg/mL in the assay on E. coli 77 CMY-2(+) (setting [11]); above 400 µg/mL in assay [2] (setting [12]); above 400 µg/mL in assay [3] (setting [12]); above 400 µg/mL in [4] (setting [13]). The zone of inhibition at 300 µg/disc in assay [5] (agent 0.3 mg per disc) worked out at 22 mm. In addition, the “Average FICI with ceftazidime” value in assay [6] is reported as 0.43. For the same compound, the “The lowest FICI with ceftazidime” value in [6] is listed as 0.27.
Take `OB(O)c1ccccc1` [PBA, phenylboronic acid, reference compound]: the minimum inhibitory concentration (MIC) in the assay with E. coli 76 KPC-2(+) (setting [14]) was above 400 µg/mL; with E. coli 77 CMY-2(+) (setting [14]), above 400 µg/mL; in assay [2] (setting [15]), above 400 µg/mL; in assay [3] (setting [15]), above 400 µg/mL; in [4] (Klebsiella pneumoniae, ATCCBAA1705, read-out: MIC of agent alone), above 400 µg/mL. Further, in assay [5], the zone of inhibition at 300 µg/disc amounted to 24 mm. In addition, the “Average FICI with ERT” value in [7] is on record as 0.35; in assay [8], 0.51; in assay [9], 0.51; in assay [10] it was 0.85. Further, the “Average FICI with IMI” value in assay [7] stood at 0.22; in assay [8] it was 0.43; in assay [9], 0.68; in assay [10], 0.43. For the same compound, the “Average FICI with MEM” value is reported as 0.26 in assay [7], 0.51 in assay [8], 0.35 in assay [9] and 0.43 in [10]. Further, the “The lowest FICI with ERT” value in assay [7] is 0.26; in assay [8], 0.51; in assay [9], 0.51; in [10], 0.52. Moreover, the “The lowest FICI with IMI” value in assay [7] is listed as 0.15; in assay [8], 0.27; in [9] it was 0.51; in assay [10], 0.27. In addition, the “The lowest FICI with MEM” value in assay [7] came out at 0.26; in assay [8], 0.51; in assay [9], 0.26; in assay [10] it was 0.27. In assay [6], the “Average FICI with ceftazidime” value amounted to 0.30. The “The lowest FICI with ceftazidime” value in assay [6] is listed as 0.15.
Take `OB(O)c1ccc(B(O)O)c(B(O)O)c1` [4b, benzene-1,2,4-triboronic]: the MIC (in assay [1]; in the assay with E. coli 76 KPC-2(+) (setting [11]); in the assay with E. coli 77 CMY-2(+) (setting [11]); in assay [2] (setting [12]); in assay [3] (setting [12]); in assay [4] (setting [13])) was above 400 µg/mL in each case. The zone of inhibition at 300 µg/disc in [5] (agent 0.3 mg per disc) worked out at 21 mm. The “Average FICI with ceftazidime” value in assay [6] is 0.43. Moreover, the “The lowest FICI with ceftazidime” value in [6] came to 0.27.
`OB(O)c1ccccc1S` [7c, 2-mercaptophenylboronic acid] had an MFC in assay [1] of 200 µg/mL (≈ 1300 µM). Further, the zone of inhibition at 0.4 mg/disc in assay [1] is 40 mm. For the same compound, the MIC in assay [1] was 25 µg/mL (≈ 162 µM); with E. coli 76 KPC-2(+) (setting [11]) it was above 200 µg/mL; in the assay with E. coli 77 CMY-2(+) (setting [11]) it was above 200 µg/mL; in assay [2] (setting [12]), above 200 µg/mL; in assay [3] (setting [12]), above 200 µg/mL; in assay [4] (setting [13]), above 200 µg/mL. Also, in assay [5] (agent 0.3 mg per disc), the zone of inhibition at 300 µg/disc is 11 mm.
